The test system of experiment [1] is HT-29 colorectal cancer cell line. In words: SRB cytotoxicity assay, HT29. Format: cell-based. As to conditions: Homo sapiens, 72 h incubation, n = 12, read-out: Cytotoxicity (as of %Control) IC50 value HT29. Here is the method:
(§1) The cancer cell lines were cultured in DMEM supplemented with 10% FBS (Bio Whittaker, Verviers, Belgium), HEPES Buffer (10 mM), gentamicin (50 µg/mL), L-glutamine (100 μg/mL), streptomycin ([…]), penicillin (100 µg/mL), and 4-(2-hydroxyethyl)-1-piperazineethanesulfonic acid (HEPES) Buffer (Sigma, St. Luis, MO, USA). The Sulforhodamine B used was obtained from Santa Cruz Biotechnology, Inc. in Texas, USA. […] Periodontal ligament fibroblasts (PDL) were utilized to assess specific cytotoxicity. Cancer cell lines that have survived offer several benefits. They provide a consistent and uninterrupted source of cells, so bypassing any ethical concerns related to the use of human tissue. Additionally, they are cost-effective. The cytotoxicity levels were assessed using the Sulforhodamine B (SRB) colorimetric assay, provided by Santa Cruz Biotechnology, Inc. in Texas, USA. The Spectro Scan 80D UV-VIS spectrophotometer, manufactured by Sedico Ltd. in Nicosia, Cyprus, was employed for this cytotoxicity screening. The cells were co-incubated with substances or a reference agent at various doses ranging from 5 to 200 μg/mL. […] The reduction in cell viability was analyzed by plotting Dose-response curves and expressing the data as a percentage of the control optical density. The IC50 values were obtained using regression analysis.
(In general: The SRB assay estimates cell density from bound dye.)

A short description of experiment [2]: DPPH free radical scavenger assay. As to conditions: DPPH radical scavenging; n = 12. From the text:
This approach relies on the reduction of the radicals, which causes a change in colour from oxidized purple to reduced yellow. Primarily, Diphenyl-2-picryl-hydrazyl (DPPH) is reduced in a solution of methanol (MeOH) when a chemical that donates hydrogen is present. This reduction is due to the creation of the non-radical form DPPH-H. The alteration in colour can be precisely assessed by employing a spectrophotometer within the wavelength range of 515–520 nm. Unlike other assays for radical scavenging, the DPPH radical is stable and yields consistent spectroscopic data. A 0.2 mM DPPH solution was diluted with MeOH and then combined with treatment compounds and ascorbic acid in a 1:1 concentration ratio using a 96-well plate. […] The solution was then incubated for one hour, isolated from light. Subsequently, the alteration in absorbance at a wavelength of 517 nm was quantified using a microplate reader manufactured by Bio-Tek Instrument in the United States. Ascorbic acid served as a strong and traditional benchmark for comparing the effectiveness of radical scavenging agents. The DPPH radical scavenging activity inhibition was calculated using the following equation, where A denotes photometric absorbance: The formula to calculate the percentage difference between a control and a sample is: (A control – A sample)/ A control x 100% [71, 72].

In experiment [3] the test system is SW620 colorectal cancer cell line. In words: SRB cytotoxicity assay, SW620. In kind it is cell-based. As to conditions: Homo sapiens, SW-620, 72 h incubation, n = 12, read-out: Cytotoxicity (as of %Control) IC50 value SW620. As to the method: as §1
For experiment [4], the system named is CACO2 colorectal cancer cell line. The experiment is described as follows: SRB cytotoxicity assay, CACO2. In kind it is cell-based. As to conditions: Homo sapiens, Caco-2, 72 h incubation, n = 12, read-out: Cytotoxicity (as of %Control) IC50 value CACO2. As to the method:
as §1

Experiment [5] deals with A375 human skin cancer cell line. The experiment is described as follows: SRB cytotoxicity assay, A375. Format: cell-based. To be noted: A-375, 72 h incubation, n = 12, read-out: Cytotoxicity (as of %Control) IC50 value A375 skin melanoma. As to the method: as §1
Experiment [6] deals with PANC1 pancreatic cell line. The experiment is described as follows: SRB cytotoxicity assay, PANC1. In kind it is cell-based. As to conditions: Homo sapiens, PANC-1, 72 h incubation, n = 12, read-out: Cytotoxicity (as of %Control) IC50 value PANC1. Here is the method: as §1
For experiment [7], the system named is Breast cancer cell line MCF7. The experiment is described as follows: SRB cytotoxicity assay, MCF7. To be noted: Homo sapiens, 72 h incubation, n = 12, read-out: Cytotoxicity (as of %Control) IC50 value MCF7 mammary malignancy. In kind it is cell-based. Here is the method: as §1
The subject of experiment [8] is cancer cell lines (panel). In words: SRB cytotoxicity assay, ranges stated over several cancer cell lines. Format: cell-based. As to conditions: Homo sapiens. Here is the method: as §1

Our source for the IC50 values is paper PMC12527173, “Cytotoxic, anti-inflammatory, antioxidant, and anti-glyoxalase-I evaluation of chelating substances: In silico and in vitro study” (PLOS One, 2025).

Each structure is given as a SMILES string. Like-named read-outs stand apart in the source and are kept apart here.

With `Cc1ccc(C(=O)c2cc(O)c(O)c([N+](=O)[O-])c2)cc1` [Tolcapone, reference compound], the IC50 in experiment [1] is 63.3 ± 1.03 µM; in experiment [2], 92.1 ± 2.4 µM; in experiment [3] it was 105 ± 8.35 µM; in experiment [4], 94.8 ± 6.65 µM; in experiment [5], 64.1 ± 1.1 µM; in experiment [6] it was 119 ± 9.28 µM. The IC50 in experiment [7] was determined as 25.6 ± 1.49 µM.

Take `C[C@]12CC[C@@H]3c4ccc(O)c(O)c4CC[C@H]3[C@@H]1CC[C@@H]2O` [4-hydroxy-estradiol]: the IC50 stood at 118 ± 4.17 µM in experiment [1]; 506 ± 102 µM in experiment [2]; 142 ± 16.5 µM in experiment [3]; 107 ± 4.77 µM in experiment [4]; 47.1 ± 1.9 µM in experiment [5]; 66.9 ± 2.69 µM in experiment [6]. In addition, in experiment [7], the IC50 was determined as 139.8 ± 1.13 µM.

Regarding `CC(/C=C/C(=O)NO)=C\[C@@H](C)C(=O)c1ccc(N(C)C)cc1` [Trichostatin A, reference compound], the IC50 was 27 ± 0.85 µM in experiment [1]; 99.3 ± 15.5 µM in experiment [2]; 19.5 µM in experiment [3]; 27.1 ± 1.28 µM in experiment [4]; 5.6 ± 0.6 µM in experiment [5]; no more than 27 µM in experiment [8] (Pancreatic cancer cell, after 72 hours of incubation, read-out: IC50, colorectal and pancreatic cancer cells). Besides, the IC50 is 1.4 to 14.7 µM in experiment [8] (A375, A549, PC3, MCF7, T47D, HeLa, read-out: IC50 range, decreases in viability in other cancer cell cultures); 14 to 27 µM in experiment [8] (CACO2, HCT116, SW620, HT29, read-out: IC50 range, anti-proliferation in colorectal cancer cells); less than 10 µM in experiment [8] (Table 3 cell lines, read-out: IC50, skin melanoma, lung carcinoma, mammary and cervix adenocarcinomas); 95.8 ± 8.2 µM in experiment [6]; 2.25 ± 0.49 µM in experiment [7].

On to `O=c1cc(O)cc(/C=C/c2ccc(O)c(O)c2)o1` [Hispidin], for which the IC50 in experiment [1] was 82.75 ± 0.78 µM; in experiment [2], 26.3 ± 0.65 µM; in experiment [3], 34.3 ± 6.52 µM; in experiment [4], 74.3 ± 1.13 µM; in experiment [5] it was 98.9 ± 9 µM; in experiment [6], 130 ± 2.08 µM. Besides, the IC50 in experiment [7] is 384 ± 7.57 µM.

With `CC(C)=CC[C@@H](O)C1=CC(=O)c2c(O)ccc(O)c2C1=O` [Shikonin], the IC50 in experiment [1] amounted to 142.3 ± 0.76 µM; in experiment [2], 34.4 ± 5.04 µM; in experiment [3] it was 60.3 ± 2.07 µM; in experiment [4] it was 43.8 ± 4.97 µM; in experiment [5], 56.5 ± 6.9 µM; in experiment [6], 80 ± 2.11 µM. The IC50 in experiment [7] was 37.8 ± 3.89 µM.

Turning to `O=C1c2ccc(O)c(O)c2C(=O)c2c(O)ccc(O)c21` [Quinalizarin], the IC50 in experiment [1] was determined as 144 ± 15.6 µM; in experiment [2] it was 580 ± 26.5 µM; in experiment [3] it was 40.7 ± 2.21 µM; in experiment [4], 109 ± 9.26 µM; in experiment [5] it was 48.6 ± 1.8 µM; in experiment [6] it was 127 ± 2.52 µM. Further, the IC50 in experiment [7] came to 33.2 ± 0.78 µM.
